Data on 10 molecules can be found in patent US8106055B2, “Substituted amide compounds” (Gruenenthal GmbH, priority 2007, dated 2012).

In test [1] the target is T1, bradykinin 1 receptor (B1R) of the rat (Rattus norvegicus, UniProt P97583).
T1 construct: expressed in transfected cells; host or cells: CHO K1 cells
T1 sequence (P97583 1-337): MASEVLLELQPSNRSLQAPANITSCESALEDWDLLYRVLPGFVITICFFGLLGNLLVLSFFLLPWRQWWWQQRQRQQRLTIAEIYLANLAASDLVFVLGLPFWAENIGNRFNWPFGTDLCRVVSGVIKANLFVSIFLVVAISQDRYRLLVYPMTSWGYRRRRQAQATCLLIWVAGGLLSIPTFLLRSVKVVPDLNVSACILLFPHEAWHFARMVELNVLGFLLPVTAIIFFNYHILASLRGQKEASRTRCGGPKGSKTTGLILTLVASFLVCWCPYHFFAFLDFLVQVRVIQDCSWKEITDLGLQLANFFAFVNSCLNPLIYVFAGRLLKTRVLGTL
As to the kind of experiment: Functional investigation on the rat bradykinin 1 receptor (B1R), Ca2+ FLIPR assay in CHO K1 rB1R cells. It is filed as cell-based. Conditions: test substance 10 μM, Ca2+ FLIPR, CHO K1 rB1R cells; for inhibition at 10 µM: CHO-K1, B1R antagonism rat, read-out: B1R Ant. r [10 μM] % Inhibition. An excerpt:
(§1) Functional Investigation on the Human Bradykinin 1 Receptor (B1R)
(§2) The agonistic or antagonistic action of substances can be determined on the bradykinin 1 receptor (B1R) of the human species and rats with the following assay. In accordance with this assay, the Ca^2+ inflow through the channel is quantified with the aid of a Ca^2=-sensitive dyestuff (type Fluo-4, Molecular Probes Europe BV, Leiden, Holland) in a fluorescent imaging plate reader (FLIPR, Molecular Devices, Sunnyvale, USA).
(§3) Chinese hamster ovary cells (CHO K1 cells) transfected stably with the human B1R gene (hB1R cells) or the B1R gene of the rat (rB1R cells) are used. For functional studies, these cells are plated out on black 96-well plates with a clear base (BD Biosciences, Heidelberg, Germany or Greiner, Frickenhausen, Germany) in a density of 20,000-35,000 cells/well. The cells are left overnight at 37° C. and 5% CO2 in culture medium (hB1R cells: Nutrient Mixture Ham's F12, Gibco Invitrogen GmbH, Karlsruhe, Germany or DMEM, Sigma-Aldrich, Taufkirchen, Germany; rB1R cells: D-MEM/F12, Gibco Invitrogen GmbH, Karlsruhe, Germany) with 10 vol. % of FBS (foetal bovine serum, Gibco Invitrogen GmbH, Karlsruhe, Germany or PAN Biotech GmbH, Aidenbach, Germany).
(§4) On the following day, the cells are loaded for 60 min at 37° C. with 2.13 μM Fluo-4 (Molecular Probes Europe BV, Leiden, The Netherlands) in HBSS buffer (Hank's buffered saline solution, Gibco Invitrogen GmbH, Karlsruhe, Germany) with 2.5 mM probenecid (Sigma-Aldrich, Taufkirchen, Germany) and 10 mM HEPES (Sigma-Aldrich, Taufkirchen, Germany). The plates are then washed 2× with HBSS buffer, and HBSS buffer which additionally contains 0.1% of BSA (bovine serum albumin; Sigma-Aldrich, Taufkirchen, Germany), 5.6 mM glucose and 0.05% of gelatine (Merck KGaA, Darmstadt, Germany) is added. After a further incubation of 20 minutes at room temperature, the plates are inserted into the FLIPR for the Ca^2+ measurement.
(§5) Alternatively, the plates are washed with buffer A (15 mM HEPES, 80 mM NaCl, 5 mM KCl, 1.2 mM CaCl2, 0.7 mM MgSO4, 2 g/l glucose, 2.5 mM probenecid), buffer A is added and the plates are loaded with 2.5 μM Fluo-4 and 0.025% of Pluronic F127 (Sigma-Aldrich, Taufkirchen, Germany). Thereafter, the cells are washed 2× with buffer A and incubated for 30 minutes with buffer A, which additionally contains 0.05% of BSA and 0.05% of gelatine, at room temperature and thereafter inserted into the FLIPR for the Ca^2+ measurement.
(§6) The Ca^2+-dependent fluorescence is measured before and after addition of substances (λex=488 nm, λem=540 nm). Quantification is by measurement of the highest fluorescence intensity (FC, fluorescence counts) over time.
(§7) The FLIPR protocol consists of 2 additions of substance. Test substances (10 μM) are first pipetted on to the cells and the Ca^2+ inflow is compared with the control (hB1R: Lys-Des-Arg^9-bradykinin >=50 nM; rB1R: Des-Arg^9-bradykinin 10 μM). This gives the information in % activation based on the Ca^2+ signal after addition of Lys-Des-Arg^9-bradykinin (>=50 nM) or Des-Arg^9-bradykinin (10 μM).
(§8) After incubation for 10-20 minutes, Lys-Des-Arg^9-bradykinin (hB1R) or Des-Arg^9-bradykinin (rB1R) is applied in the concentration of the EC80 and the inflow of Ca^2+ is likewise determined.
(§9) Antagonists lead to a suppression of the Ca^2+ inflow. % inhibition compared with the maximum achievable inhibition is calculated.
(§10) To determine the IC50 value, the substances are added in various concentrations. Duplicate or triplicate determinations (n=2 or n=3) are carried out, and these are repeated in at least one further independent experiment (N>=2).
(§11) Preferably, the compounds have a B1R antagonistic action on the human receptor and/or on the rat receptor. The following data are given by way of example in the following table: (In this, “B1R Ant. h” represents “B1R antagonism human” and “B1R Ant. r” represents “B1R antagonism rat”)

Test [2] deals with T2, human bradykinin 1 receptor (B1R) (Homo sapiens, UniProt P46663).
T2 construct: expressed in transfected cells; host or cells: CHO K1 cells
T2 sequence (P46663 1-353): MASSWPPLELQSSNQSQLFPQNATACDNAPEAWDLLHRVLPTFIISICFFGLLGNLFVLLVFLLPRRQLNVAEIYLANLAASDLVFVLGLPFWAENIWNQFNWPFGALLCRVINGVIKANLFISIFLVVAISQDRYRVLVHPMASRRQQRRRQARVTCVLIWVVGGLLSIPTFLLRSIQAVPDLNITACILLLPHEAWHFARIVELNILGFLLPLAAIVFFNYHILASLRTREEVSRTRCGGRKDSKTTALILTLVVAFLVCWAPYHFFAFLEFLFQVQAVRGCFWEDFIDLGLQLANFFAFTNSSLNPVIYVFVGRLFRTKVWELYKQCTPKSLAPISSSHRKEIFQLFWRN
As to the kind of experiment: Functional investigation on the human bradykinin 1 receptor (B1R), Ca2+ FLIPR assay in CHO K1 hB1R cells. It is filed as cell-based. The following applies: test substance 10 μM, Ca2+ FLIPR, CHO K1 hB1R cells; for inhibition at 10 µM: CHO-K1, B1R antagonism human, read-out: B1R Ant. h [10 μM] % Inhibition.
From the text: as §1, §2, §3, §4, §5, §6, §7, §8, §9, §10, §11

With `CN(C)C(CCc1ccccc1)C1CCC(NC(=O)CNC(=O)c2nc(-c3ccc(C(C)(C)C)cc3)no2)CC1` (centres unmarked) [Example 786, 3-(4-tert-butyl-phenyl)-[1,2,4]oxadiazole-5-carboxylic acid {[4-(1-dimethylamino-3-phenyl-propyl)-cyclohexylcarbamoyl]-methyl}-amide], the values for the inhibition at 10 µM in test [1] and in test [2] were -4% and 35%, respectively.
The matching figures for `CN(C)C(c1ccccc1)C1CCC(NC(=O)CCNC(=O)c2nc(-c3ccc(Cl)cc3Cl)no2)CC1` (centres unmarked) [Example 773, 3-(2,4-dichloro-phenyl)-[1,2,4]oxadiazole-5-carboxylic acid {2-[4-(dimethylamino-phenyl-methyl)-cyclohexylcarbamoyl]-ethyl}-amide]: 17% and 20%.
Taken in the same sequence, the figures for `O=C(COCCN(C1CC1)S(=O)(=O)c1c(Cl)cc(Cl)cc1Cl)NC1CCC(C(c2ccccc2)N2CCOCC2)CC1` (centres unmarked) [Example 605, 2-{2-[cyclopropyl-(2,4,6-trichlorobenzenesulfonyl)-amino]-ethoxy}-N-[4-(morpholin-4-yl-phenylmethyl)-cyclohexyl]-acetamide] were 38% and 40%.
In the case of `CN(C)C(c1cccc(F)c1)C1CCC(CNC(=O)CCNC(=O)c2nc(-c3cccs3)no2)CC1` (centres unmarked) [Example 780, 3-thiophen-2-yl-[1,2,4]oxadiazole-5-carboxylic acid [2-({4-[dimethylamino-(3-fluoro-phenyl)-methyl]-cyclohexylmethyl}-carbamoyl)-ethyl]-amide], the inhibition at 10 µM is -2% in test [1] and -12% in test [2].
Take `CN(CCOCC(=O)NC1CCC(C(c2ccccc2)N2CCOCC2)CC1)S(=O)(=O)c1c(Cl)cc(Cl)cc1Cl` (centres unmarked) [Example 607, 2-{2-[methyl-(2,4,6-trichlorobenzenesulfonyl)-amino]-ethoxy}-N-[4-(morpholin-4-ylphenylmethyl)-cyclohexyl]-acetamide]: the “B1R Ant. r [10 μM] % Inhibition” value in test [1] (B1R antagonism rat) is 3%. Further, in test [2] (B1R antagonism human), the “B1R Ant. h [10 μM] % Inhibition” value was found to be 12%.
On to `CN(C)C(c1ccccc1)C1CCC(NC(=O)CCNC(=O)c2nc(-c3ccccn3)no2)CC1` (centres unmarked) [Example 771, 3-pyridin-2-yl-[1,2,4]oxadiazole-5-carboxylic acid {2-[4-(dimethylamino-phenyl-methyl)-cyclohexylcarbamoyl]-ethyl}-amide], for which the inhibition at 10 µM was 8% in test [1] and -16% in test [2].
Taken in the same sequence, the figures for `CN(C)C(CCc1ccccc1)C1CCC(NC(=O)CNC(=O)c2nc(-c3ccc(C(F)(F)F)cc3)no2)CC1` (centres unmarked) [Example 785, 3-(4-trifluoromethyl-phenyl)-[1,2,4]oxadiazole-5-carboxylic acid {[4-(1-dimethylamino-3-phenyl-propyl)-cyclohexylcarbamoyl]-methyl}-amide] were 32% and 76%.
Regarding `COc1ccccc1-c1noc(C(=O)NCC(=O)NCC2CCC(C(c3cccc(F)c3)N(C)C)CC2)n1` (centres unmarked) [Example 787, 3-(2-methoxy-phenyl)-[1,2,4]oxadiazole-5-carboxylic acid [({4-[dimethylamino-(3-fluoro-phenyl)-methyl]-cyclohexylmethyl}-carbamoyl)-methyl]-amide], the inhibition at 10 µM came out at 11% in test [1] and 19% in test [2].
In the case of `CN(C)C(CCc1ccccc1)C1CCC(NC(=O)CNC(=O)c2nc(-c3c(Cl)cccc3Cl)no2)CC1` (centres unmarked) [Example 793, 3-(2,6-dichloro-phenyl)-[1,2,4]oxadiazole-5-carboxylic acid {[4-(1-dimethylamino-3-phenyl-propyl)-cyclohexylcarbamoyl]-methyl}-amide], the inhibition at 10 µM in test [1] worked out at 6%; in test [2] it was 104%.
Taken in the same sequence, the figures for `CN(C)C(c1ccccc1)C1CCC(NC(=O)CNC(=O)c2nc(-c3cccs3)no2)CC1` (centres unmarked) [Example 764, 3-thiophen-2-yl-[1,2,4]oxadiazole-5-carboxylic acid {[4-(dimethylamino-phenyl-methyl)-cyclohexylcarbamoyl]-methyl}-amide] were -31% and 17%.
